Results taken from the NIST ThermoML archive (doi:10.1016/j.jct.2011.06.020).
Numbers after ± are expanded uncertainties.

Legend:
[1] = refractive index (Na D-line) (dimensionless); xn = mol fraction of the nth substance listed; conditions: 101 kPa, Liquid, Standard Abbe refractometry, x2 = 0
[2] = xn = mol fraction of the nth substance listed; conditions: x2 = 0; for surface tension liquid-gas: Tensiometer with plate; for viscosity / mass density: 101 kPa, Liquid; for viscosity: Capillary tube (Ostwald / Ubbelohde) method; for mass density: Vibrating tube method

O [water] + CN1CCNCC1
Conditions | mass density, [2] [kg/m3] | refractive index, [1] | surface tension liquid-gas, [2] [mN/m] | viscosity, [2] [mPa·s]
293.15 K | – | 1.333 ± 0.001 | 72.09 ± 0.12 | –
298.15 K | – | 1.333 ± 0.001 | – | 0.894 ± 0.019
303.15 K | – | 1.332 ± 0.001 | 71.27 ± 0.12 | 0.8 ± 0.017
308.15 K | – | 1.331 ± 0.001 | 70.44 ± 0.12 | –
313.15 K | – | 1.331 ± 0.001 | 69.66 ± 0.12 | 0.656 ± 0.014
318.15 K | – | 1.331 ± 0.001 | 68.83 ± 0.12 | –
323.15 K | – | 1.329 ± 0.001 | 67.95 ± 0.12 | –
325.15 K | 988.03 ± 0.05 | – | – | 0.55 ± 0.012
328.15 K | – | 1.328 ± 0.001 | – | –
333.15 K | 983.2 ± 0.05 | 1.327 ± 0.001 | 66.23 ± 0.12 | 0.47 ± 0.01
343.15 K | 977.78 ± 0.05 | – | – | 0.409 ± 0.009
